Source: patent US6559158B1, “Use of methylnaltrexone and related compounds to treat chronic opioid use side affects” (UR Labs, Inc., priority 1997, dated 2003)
Like-named read-outs stand apart in the source and are kept apart here.

Legend:
[1] = system: chronic methadone subjects; experiment: Example 1: side effects, abdominal cramping and central opioid withdrawal; type: in vivo, human
Protocol: (§1) Vital signs were obtained at 0, 5, 10, 30, 60, 90 and 120 min after each test drug administration. For oral-cecal transit time measurement, 10 g lactulose (Solvay Pharmaceuticals, Marietta, Ga.) was administered orally at 09:00 h of Day 1, Day 5 and Day 8 for Subject 1; of Day 1 for Subject 2, and of Day 1, Day 3 and Day 5 for Subjects 3 and 4. Illicit drug use was monitored by random urine drug screens.
To evaluate possible opioid withdrawal with methylnaltrexone, subjects were asked to rate on a 5-point scale from 0 (not at all) to 4 (extremely) an […] checklist Withdrawal Scale (Fraser et al., J Pharmacol Exp. Ther., 133:371-387 (1961); Jasinski, Drug Addiction J., 197-258 (1977); both herein incorporated by reference). Items to be rated were: muscle cramps, flushing, painful joints, yawning, restless, watery eyes, runny nose, chills or gooseflesh, sick to stomach, sneezing, abdominal cramps, irritable, backache, tense and jittery, sweating, depressed/sad, sleepy, shaky (hands), hot or cold flashes, and bothered by noises. The ratings for individual items were summed for a total score for each scale. The total scores were compared before and after methylnaltrexone administration to see if there was a significant difference.

normal volunteers [2] = experiment: FIG. 5: oral-cecal transit time of normal volunteers given MNTX; type: in vivo, human; conditions: normal subjects, doses 2.1 mg/kg to 6.4 mg/kg (FIG. 5)
Protocol: FIG. 5 is a comparison of oral-cecal transit times of normal volunteers and methadone maintenance subjects showing the increased responsiveness of chronic opioid patients to MNTX. At doses ranging from 2.1 mg/kg to 6.4 mg/kg, normal subjects experienced about a 15-20% reduction in oral-cecal transit time, while at a dose of 3.0 mg/kg, methadone subjects experienced a greater than 35% reduction in oral-cecal transit time.

[3] = Absorption after oral administration of non-enteric coated compound; type: in vivo
Protocol: Methylnaltrexone is rapidly absorbed after oral administration from the stomach and bowel. Initial plasma levels of the drug are seen within 5-10 minutes of the administration of non-enteric coated compound. Addition of an enteric coating which prevents gastric absorption is associated with lower plasma levels of the methylnaltrexone.

normal volunteers [4] = conditions: eight normal volunteers, cited from earlier work
[5] = system: chronic methadone subjects; experiment: Example 3: oral methylnaltrexone, oral-cecal transit time; type: in vivo, human
Protocol: (§2) The oral-cecal transit time was assessed by the pulmonary hydrogen (H2) measurement technique, which measures pulmonary H2 that is produced when unabsorbed lactulose is fermented by colonic bacteria and excreted in the breath. This H2 production is reflected by a concomitant increase in breath H2 excretion. […] Dis. Sci., 32:829-832 (1987)). Hydrogen breath tests were conducted every 15 min until oral-cecal transit time was determined.
Twelve constipated adults (≦2 stool/week) were enrolled. […] Drug administrations were single-blinded to the subject.

[6] = system: chronic methadone subjects; experiment: Example 1: oral-cecal transit time (lactulose hydrogen breath test); type: in vivo, human; conditions: 150 min after placebo
Protocol: as §1, §2

[7] = humans; cited from earlier work
[8] = system: chronic methadone subjects; experiment: Example 2: side effects, vital signs and opioid withdrawal; type: in vivo, human
Protocol: Vital signs were obtained at 0, 5, 10, 30, 60, 90 and 120 min after each test drug administration. Illicit drug use was monitored by random urine drug screens.
To evaluate possible opioid withdrawal with methylnaltrexone, before and 10 min after the completion of test drug administration, subjects were asked to complete an objective checklist of withdrawal symptoms modified from Fraser et al. (J. Pharmacol Exp. Ther., 133:371-387 (1961)) and Jasinski (Drug Addiction J., 197-258 (1977)). Items rated (none, mild, moderate, severe) were yawning, lacrimation (excessive tearing), rhinorrhea (nasal discharge), perspiration, tremor, piloerection (goosebumps), and restlessness. The ratings for individual items were translated to a 0-3 scale and summed to give a total symptom score. The total scores before and after test drug administrations were compared between the groups. Potential opioid withdrawal symptoms were also monitored by an investigator throughout the study.

[9] = system: constipated methadone maintained patients; experiment: Example 3: oral methylnaltrexone, laxation response; type: in vivo, human; conditions: for subjects who had a bowel movement: 4 subjects; for time to bowel movement after oral compound: mean±SD
Protocol: Since oral medication is a safer and more convenient way to deliver drugs than is intravenous administration, the efficacy of oral MNTX in relieving constipation in methadone maintained patients was evaluated. Twelve constipated adults (≦2 stool/week) were enrolled. Their daily methadone dose was 73.3±16.2 mg (41-100 mg), mean±SD (range). On day 1 at 9AM, subjects ingested 10 g lactulose (Solvay Pharmaceuticals) to assess oral-cecal transit time as described above, and a placebo capsule. On day 2 at 9AM, subjects again received lactulose, and a capsule containing methylnaltrexone (Mallinckrodt). Ascending oral methylnaltrexone doses (0.3, 1.0, and 3,0 mg/kg) were given to 3 groups of 4 subjects per group. Drug administrations were single-blinded to the subject. Laxation response and potential opioid withdrawal were recorded and blood samples were collected.

[10] = Subjects 3 and 4, 0.05-0.15 mg/kg iv twice daily, 4 days
[11] = iv methylnaltrexone, #1 0.45 mg/kg bid, #2 0.45 mg/kg, #3 and #4 0.05-0.15 mg/kg bid, iv methylnaltrexone 0.45 mg/kg
[12] = iv methylnaltrexone, #1 0.45 mg/kg bid, #2 0.45 mg/kg, #3 and #4 0.05-0.15 mg/kg bid, iv methylnaltrexone 0.05-0.15, bid mg/kg
[13] = iv methylnaltrexone, #1 0.45 mg/kg bid, #2 0.45 mg/kg, #3 and #4 0.05-0.15 mg/kg bid, iv methylnaltrexone 0.05-015, bid mg/kg
[14] = iv methylnaltrexone, #1 0.45 mg/kg bid, #2 0.45 mg/kg, #3 and #4 0.05-0.15 mg/kg bid, iv methylnaltrexone 0.45, bid mg/kg

In the case of `C[N@+]1(CC2CC2)CC[C@]23c4c5ccc(O)c4O[C@H]2C(=O)CC[C@@]3(O)[C@H]1C5` [methylnaltrexone, N-methylnaltrexone bromide], the side effects ([1]; Subject 1, 0.45 mg/kg iv, 7 days of administration) is reported as “did not experience any significant side effects”, the abdominal cramping ([1]; Subject 1, 0.45 mg/kg iv, after each injection) is reported as “mild abdominal cramping” and the “signs of systemic withdrawal (lacrimation, diaphoresis, mydriasis, hallucinations)” value ([1]; Subject 2, single dose 0.45 mg/kg iv) is reported as “no signs of systemic withdrawal”. The abdominal cramping ([1]; Subject 2, single dose 0.45 mg/kg iv over 1 min) was “severe abdominal cramping”, the abdominal cramping [1, 10] was “mild abdominal cramping” and the side effects [1, 10] was “No significant side effects were observed”. For the same molecule, the Central opioid withdrawal [1, 11] was “No”, the abdominal cramping [1, 11] was “Severe” and the Central opioid withdrawal [1, 12] was “No”. For the same molecule, the abdominal cramping [1, 12] was “Mild”, the Central opioid withdrawal [1, 13] was “No” and the abdominal cramping [1, 13] was “Mild”. The Central opioid withdrawal [1, 14] was “No”, the abdominal cramping [1, 14] was “Mild” and the “reduction in oral-cecal transit time” value (normal volunteers [2]) was 15-20%. The “time to initial plasma levels after oral administration” value [3] was 5 to 10 min, the side effects (normal volunteers [4]; doses of 0.64 to 1.25 mg/kg) was “transient orthostatic hypotension” and the side effects (normal volunteers [4]; doses up to 0.32 mg/kg) was “did not cause side effects”. The “reduction in oral-cecal transit time” value ([5]; methadone subjects, dose of 3.0 mg/kg (FIG. 5)) was “greater than 35%”, the “dose-related reduction of oral-cecal transit times” value ([5]; oral 0.3, 1.0, 3.0 mg/kg, p<0.05, Spearman rank correlation and linear regression) was “significant dose-response effect” and the “oral-cecal transit time after methylnaltrexone, at the end of the study” value (shortened to “oral-cecal transit time … of the study”) ([6]; Subject 1, 0.45 mg/kg iv bid) was 90 min. The “oral-cecal transit time … of the study” value ([6]; Subject 3, 0.05-0.15 mg/kg iv bid) was 60 min, the “oral-cecal transit time … of the study” value ([6]; Subject 4, 0.05-0.15 mg/kg iv bid) was 60 min and the blood-brain barrier passage [7] was “does not cross the blood-brain barrier”. The de-methylation [7] was “do not appreciably de-methylate”, the “abdominal cramping during and immediately after injection” value ([8]; all subjects of methylnaltrexone group, iv) was “mild to moderate abdominal cramping” and the “change in blood pressure or heart rate from baseline” value ([8]; study drug infusion) was “No subject demonstrated any clinically significant change”. For the same molecule, the “subjects who had a bowel movement” value ([9]; oral 0.3 mg/kg) was 3 out of 4, the “time to bowel movement after oral compound” value (from here on “time to bowel movement”) ([9]; oral 0.3 mg/kg, range 8-24 hr) was 18.0 ± 8.7 h and the “subjects who had a bowel movement” value ([9]; oral 1.0 mg/kg) was “All subjects”. For the same molecule, the “time to bowel movement” value ([9]; oral 1.0 mg/kg, range 3-24 hr) was 12.3 ± 8.7 h, the “subjects who had a bowel movement” value ([9]; oral 3.0 mg/kg) was “All subjects” and the “time to bowel movement” value ([9]; oral 3.0 mg/kg, range 1.2-10 hr) was 5.2 ± 4.5 h.
